Experimental data as given in patent US8173689B2 (Novartis AG, priority 2006, dated 2012).
Where two headings read alike, the source gives them in different places.

How the values were obtained:
[1] = test system: MNFS60 (murine AML cells); assay: Cell viability assay in MCSF dependent MNFS60 cells (Cell Titer Glo); format: cell-based; settings: Mus musculus, tested at about 1 μM, read-out: M-NFS-60 CP percent inhibition
How it was run: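 Compounds were serially diluted 3-fold in DMSO to 500× final and added to cells with MCSF at 10 ng/ml final. After 72 hrs at 37° C. under 5% CO2, viable cells were quantified by CellTiter-Glo luminescence; triplicate wells gave EC50 values by curve fitting.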

kinase domain of PDGFRβ = molecular target: T1, kinase domain of PDGFRβ (Homo sapiens, UniProt P09619); assay: Inhibition of PDGFRb kinase signaling in an in vitro biochemical assay (alphascreen); settings: tested at about 1 μM, read-out: PDGFRβ percent inhibition
T1 construct: The kinase domain of PDGFRβ was assayed in 50 mM Hepes; purchased Invitrogen P3082
T1 sequence (P09619 600-962 limits assumed): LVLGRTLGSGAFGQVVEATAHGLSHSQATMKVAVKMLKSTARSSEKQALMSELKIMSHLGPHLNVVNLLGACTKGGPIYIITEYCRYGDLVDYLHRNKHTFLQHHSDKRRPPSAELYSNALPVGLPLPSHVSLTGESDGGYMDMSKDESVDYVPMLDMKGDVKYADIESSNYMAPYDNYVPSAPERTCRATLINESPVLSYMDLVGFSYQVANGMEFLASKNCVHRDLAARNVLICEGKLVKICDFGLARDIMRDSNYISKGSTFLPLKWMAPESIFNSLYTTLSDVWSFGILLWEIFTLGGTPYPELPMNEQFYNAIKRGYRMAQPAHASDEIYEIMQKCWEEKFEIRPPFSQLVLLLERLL

[2] = molecular target: T2, cytoplasmic domain of the human CSF-1R (Homo sapiens, UniProt P07333); assay: In vitro kinase assay for colony stimulating factor-1 receptor (AlphaScreen); format: biochemical; settings: tested at about 1 μM, read-out: CSF-1R percent inhibition
T2 construct: Recombinant protein corresponding to the cytoplasmic domain of the human CSF-1R; purchased Invitrogen Corporation, Carlsbad, Calif; PV3249
T2 sequence (P07333 539-972 limits assumed): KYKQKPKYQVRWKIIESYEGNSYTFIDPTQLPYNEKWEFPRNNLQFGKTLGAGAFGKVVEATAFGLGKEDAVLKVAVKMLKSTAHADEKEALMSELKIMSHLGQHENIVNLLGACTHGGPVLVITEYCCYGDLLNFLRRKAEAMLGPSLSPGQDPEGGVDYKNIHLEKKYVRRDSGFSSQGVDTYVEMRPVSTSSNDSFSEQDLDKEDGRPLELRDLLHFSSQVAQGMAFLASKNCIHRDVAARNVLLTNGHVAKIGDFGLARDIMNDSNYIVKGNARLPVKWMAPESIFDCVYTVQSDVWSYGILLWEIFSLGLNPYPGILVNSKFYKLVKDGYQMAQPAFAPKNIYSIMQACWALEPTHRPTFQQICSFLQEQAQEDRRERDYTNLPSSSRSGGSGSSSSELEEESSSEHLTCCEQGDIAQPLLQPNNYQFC
How it was run: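 4 nM enzyme, 1 μM ATP; buffer 50 mM Hepes pH 7.5, 5 mM MgCl2, 10 mM MnCl2, 1.0 mM DTT, 0.1% BSA, 0.01% Tween 80. Readout: AlphaScreen, PT66 acceptor/streptavidin donor, overnight.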

[3] = molecular target: T3, full-length human CSF-1R receptor (Homo sapiens, UniProt P07333); assay: In vitro inhibition of CSF-1R receptor tyrosine phosphorylation in transfected HEK293H cells stimulated with MCSF; format: cell-based; settings: HEK293-H, tested at about 1 μM, read-out: pCSF1R percent inhibition
T3 construct: transfected with the full-length human CSF-1R receptor cloned in house; expressed in transfected cells; host or cells: HEK293H (Invitrogen Cat. #11631017)
T3 sequence (P07333 20-972): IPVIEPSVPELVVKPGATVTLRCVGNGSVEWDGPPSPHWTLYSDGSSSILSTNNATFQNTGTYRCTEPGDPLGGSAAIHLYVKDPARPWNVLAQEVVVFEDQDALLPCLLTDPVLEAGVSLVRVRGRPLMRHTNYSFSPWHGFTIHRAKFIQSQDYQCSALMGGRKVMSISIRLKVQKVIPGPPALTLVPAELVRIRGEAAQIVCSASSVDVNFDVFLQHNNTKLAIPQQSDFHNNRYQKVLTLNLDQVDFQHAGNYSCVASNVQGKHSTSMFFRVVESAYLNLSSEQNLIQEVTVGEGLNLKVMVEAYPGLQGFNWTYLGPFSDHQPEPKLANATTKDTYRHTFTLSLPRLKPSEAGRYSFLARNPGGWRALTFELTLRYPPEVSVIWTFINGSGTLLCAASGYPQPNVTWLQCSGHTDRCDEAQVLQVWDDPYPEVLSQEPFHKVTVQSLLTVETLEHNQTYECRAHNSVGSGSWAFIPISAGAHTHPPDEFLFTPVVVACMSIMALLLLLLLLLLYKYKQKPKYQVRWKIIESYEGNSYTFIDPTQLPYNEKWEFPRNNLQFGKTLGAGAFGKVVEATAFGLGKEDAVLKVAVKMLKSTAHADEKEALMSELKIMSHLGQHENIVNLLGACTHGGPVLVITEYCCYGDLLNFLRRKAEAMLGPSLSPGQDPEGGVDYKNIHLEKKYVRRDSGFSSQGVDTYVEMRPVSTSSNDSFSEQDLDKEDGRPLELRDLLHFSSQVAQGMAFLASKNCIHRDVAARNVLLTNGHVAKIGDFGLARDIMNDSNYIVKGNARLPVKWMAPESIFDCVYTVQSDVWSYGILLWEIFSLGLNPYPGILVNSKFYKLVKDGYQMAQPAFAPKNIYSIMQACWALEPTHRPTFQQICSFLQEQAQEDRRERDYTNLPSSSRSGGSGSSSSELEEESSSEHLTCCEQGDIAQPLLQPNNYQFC
Description: The lysate was then transferred to total CSF-1R antibody coated 96-well plates that had already been blocked with 3% Blocker A from Mesoscale discovery (MSD) for 2 hours and washed afterwards. Lysates were incubated overnight at 4° C. and the plates were then washed 4× with MSD Tris Wash Buffer. […] The plates were read on the Sector 6000 instrument (MSD). Raw data was imported in Abase and EC50s calculated with XL-fit data analysis software.

kinase domain of cKIT = molecular target: T4, kinase domain of cKIT (Homo sapiens, UniProt P10721); assay: Inhibition of cKIT kinase signaling in an in vitro biochemical assay (alphascreen); settings: tested at about 1 μM, read-out: cKit percent inhibition
T4 construct: The kinase domain of cKIT was assayed in 50 mM Hepes; purchased Upstate 14-559
T4 sequence (P10721 589-937 limits assumed): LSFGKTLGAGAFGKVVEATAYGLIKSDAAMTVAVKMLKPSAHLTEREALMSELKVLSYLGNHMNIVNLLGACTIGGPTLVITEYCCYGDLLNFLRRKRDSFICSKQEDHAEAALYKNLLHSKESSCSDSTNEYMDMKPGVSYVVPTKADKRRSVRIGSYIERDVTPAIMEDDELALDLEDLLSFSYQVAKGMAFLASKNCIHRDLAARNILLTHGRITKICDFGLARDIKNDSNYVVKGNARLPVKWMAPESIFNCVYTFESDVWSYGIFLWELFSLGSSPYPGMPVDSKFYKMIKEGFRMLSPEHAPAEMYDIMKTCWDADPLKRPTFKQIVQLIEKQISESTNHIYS

C[C@H](Nc1nc2ccc(Oc3ccnc4ccccc34)cc2s1)C1CCCCC1 [Example 241, (S)-N-(1-cyclohexylethyl)-6-(quinolin-4-yloxy)benzo[d]thiazol-2-amine]
inhibition at 1 µM ([1]; compounds of Table 3): 51%
inhibition at 1 µM (kinase domain of PDGFRβ; compounds of Table 3): 23%
inhibition at 1 µM ([2]; compounds of Table 3): 100%
inhibition at 1 µM ([3]; compounds of Table 3): 65%
inhibition at 1 µM (kinase domain of cKIT; compounds of Table 3): 25%

CCc1nc(-c2cc(Oc3ccc4nc(N[C@@H]5CCCC[C@H]5O)sc4c3)ccn2)[nH]c1CC [Example 266, (1R,2R)-2-(6-(2-(4,5-diethyl-1H-imidazol-2-yl)pyridin-4-yloxy)benzo[d]thiazol-2-ylamino)cyclohexanol]
inhibition at 1 µM ([1]; compounds of Table 3): 100%
inhibition at 1 µM (kinase domain of PDGFRβ; compounds of Table 3): 21%
inhibition at 1 µM ([2]; compounds of Table 3): 100%
inhibition at 1 µM ([3]; compounds of Table 3): 94%
inhibition at 1 µM (kinase domain of cKIT; compounds of Table 3): 18%

O[C@@H]1CCCC[C@H]1Nc1nc2ccc(Oc3ccnc(-c4cn[nH]c4)c3)cc2s1 [Example 360, (1R,2R)-2-(6-(2-(1H-pyrazol-4-yl)pyridin-4-yloxy)benzo[d]thiazol-2-ylamino)cyclohexanol]
inhibition at 1 µM ([1]; MCSF dependent MNFS60 cells): 100%
inhibition at 1 µM (kinase domain of PDGFRβ): 16%
inhibition at 1 µM [2]: 100%
inhibition at 1 µM ([3]; HEK293H cells): 98%
inhibition at 1 µM (kinase domain of cKIT): 29%

O[C@@H]1CCCC[C@H]1Nc1nc2ccc(Oc3ccnc(-n4ccnc4)c3)cc2s1 [Example 262, (1R,2R)-2-(6-(2-(1H-imidazol-1-yl)pyridin-4-yloxy)benzo[d]thiazol-2-ylamino)cyclohexanol]
inhibition at 1 µM ([1]; compounds of Table 3): 46%
inhibition at 1 µM (kinase domain of PDGFRβ; compounds of Table 3): 3%
inhibition at 1 µM ([2]; compounds of Table 3): 100%
inhibition at 1 µM ([3]; compounds of Table 3): 48%
inhibition at 1 µM (kinase domain of cKIT; compounds of Table 3): 20%

CN(C)c1ncc(-c2cc(Oc3ccc4nc(N[C@@H]5CCCC[C@H]5O)sc4c3)ccn2)cn1 [Example 286, (1R,2R)-2-(6-(2-(2-(dimethylamino)pyrimidin-5-yl)pyridin-4-yloxy)benzo[d]thiazol-2-ylamino)cyclohexanol]
inhibition at 1 µM ([1]; compounds of Table 3): 71%
inhibition at 1 µM (kinase domain of PDGFRβ; compounds of Table 3): 0%
inhibition at 1 µM ([2]; compounds of Table 3): 100%
inhibition at 1 µM ([3]; compounds of Table 3): 94%
inhibition at 1 µM (kinase domain of cKIT; compounds of Table 3): 23%

CNC(=O)c1cc(Oc2ccc3nc(NCc4ccc5c(c4)CCO5)oc3c2)ccn1 [Compound 124, 4-{2-[(2,3-Dihydro-benzofuran-5-ylmethyl)-amino]-benzooxazol-6-yloxy}-pyridine-2-carboxylic acid methylamide]
inhibition at 1 µM ([1]; MNFS60 cells): 51%
inhibition at 1 µM (kinase domain of PDGFRβ): 0%
inhibition at 1 µM [2]: 99%
inhibition at 1 µM ([3]; HEK293H cells): 94%
inhibition at 1 µM (kinase domain of cKIT): 32%

CNC(=O)c1cc(Oc2ccc3nc(N[C@@H](CO)C4CCCCC4)oc3c2)ccn1 [Compound 67, 4-[2-((R)-1-Cyclohexyl-2-hydroxy-ethylamino)-benzo-oxazol-6-yloxy]-pyridine-2-carboxylic acid methylamide]
inhibition at 1 µM ([1]; MNFS60 cells): 10%
inhibition at 1 µM (kinase domain of PDGFRβ): 1%
inhibition at 1 µM [2]: 97%
inhibition at 1 µM ([3]; HEK293H cells): 0%
inhibition at 1 µM (kinase domain of cKIT): 8%

O[C@@H]1CCCC[C@H]1Nc1nc2ccc(Oc3ccnc4cc(F)ccc34)cc2s1 [Example 229, (1R,2R)-2-(6-(7-fluoroquinolin-4-yloxy)benzo[d]thiazol-2-ylamino)cyclohexanol]
inhibition at 1 µM ([1]; compounds of Table 3): 80%
inhibition at 1 µM (kinase domain of PDGFRβ; compounds of Table 3): 30%
inhibition at 1 µM ([2]; compounds of Table 3): 100%
inhibition at 1 µM ([3]; compounds of Table 3): 92%
inhibition at 1 µM (kinase domain of cKIT; compounds of Table 3): 21%

Cn1cc(-c2cc(Oc3ccc4nc(NCC5CCCCC5)sc4c3)ccn2)cn1 [Example 340, N-(cyclohexylmethyl)-6-(2-(1-methyl-1H-pyrazol-4-yl)pyridin-4-yloxy)benzo[d]thiazol-2-amine]
inhibition at 1 µM ([1]; MCSF dependent MNFS60 cells): 100%
inhibition at 1 µM (kinase domain of PDGFRβ): 98%
inhibition at 1 µM [2]: 100%
inhibition at 1 µM ([3]; HEK293H cells): 96%
inhibition at 1 µM (kinase domain of cKIT): 100%

CNC(=O)c1cc(Oc2ccc3nc(NCCc4ccncc4)sc3c2)ccn1 [Example 316, N-methyl-4-(2-(2-(pyridin-4-yl)ethylamino)benzo[d]thiazol-6-yloxy)picolinamide]
inhibition at 1 µM ([1]; MCSF dependent MNFS60 cells): 41%
inhibition at 1 µM (kinase domain of PDGFRβ): 12%
inhibition at 1 µM [2]: 99%
inhibition at 1 µM ([3]; HEK293H cells): 98%
inhibition at 1 µM (kinase domain of cKIT): 8%
